The nature of the series: Dissolution and release of powder samples in water (FIG. 2). The format is physicochemical. Conditions: alone. As to the method:
The formation of an inclusion complex of a medical compound with an alkylated cyclodextrin derivative in accordance with the process described above was confirmed by various methods such as powder X-ray diffraction, dissolution behavior, scanning electron microscope analysis, differential thermal analysis (DTA) and infrared absorption (IR). Inclusion complexes were prepared using diltiazem hydrochloride as an exemplary medical compound, and the behavior of dissolution and release of diltiazem from the inclusion complex in the powder form, as well as the behavior of dissolution and release of diltiazem from compressed tablets containing the inclusion complex were determined in order to confirm the complexing reaction and to evaluate the sustained release property, respectively. Further, the inclusion complex was administered orally to rats, and changes in the plasma concentration of the medical compound were then measured. While taking the determined dissolution and release behavior of the diltiazem into parallel consideration, the achievement of the sustained release property of the inclusion complex was confirmed. It was also proven that the dissolution and release rate of the medical compound, diltiazem, could be controlled at will, by using the ethylated cyclodextrins as the host compound for formation of inclusion complexes. […]

Structures are written as SMILES. Structures can show the parent of a compound that is named as a salt.

For `COc1ccc([C@@H]2Sc3ccccc3N(CCN(C)C)C(=O)[C@@H]2OC(C)=O)cc1` [diltiazem hydrochloride], the “time to dissolution in water to an extent of 100%” value is listed as “about 5 minutes”.

(Values after patent US4869904A, “Sustained release drug preparation” (Nisshin Flour Milling Co., Ltd., priority 1986, dated 1989).)
